Test results taken from US4910225A, “Locally administrable therapeutic composition for inflammatory disease” (Senju Pharmaceutical Co., Ltd., priority 1988, dated 1990).

Columns and labels:
[1] = system: experimental ophthalmitis induced by bovine serum albumin in white rabbits (ophthalmitis I); assay: Anti-inflammatory effect in ophthalmitis I (bovine serum albumin injected into the vitreous), gross severity scores; format: in vivo; conditions: for Anterior chamber opacity, degree of inhibition relative to physiological saline group / Balbar conjunctival injection, degree of inhibition relative to physiological saline group / Corneal opacity, degree of inhibition relative to physiological saline group / Discharge, degree of inhibition relative to physiological saline group / External + Internal Grand Total Score, degree of inhibition relative to physiological saline group / External Segment Total Score, degree of inhibition relative to physiological saline group / Internal Segment Total Score, degree of inhibition relative to physiological saline group / Iridic injection, degree of inhibition relative to physiological saline group / Morphological change of iris, degree of inhibition relative to physiological saline group / Palpebral conjunctival edema, degree of inhibition relative to physiological saline group / Palpebral conjunctival injection, degree of inhibition relative to physiological saline group / Anterior chamber opacity score (Internal Segment) / Balbar conjunctival injection score (External Segment) / Corneal opacity score (External Segment) / Discharge score (External Segment) / External + Internal Grand Total Score / External Segment Total Score / Internal Segment Total Score / Iridic injection score (Internal Segment) / Morphological change of iris score (Internal Segment) / Palpebral conjunctival edema score (External Segment) / Palpebral conjunctival injection score (External Segment): ophthalmitis I; for Anterior chamber opacity score (Internal Segment) / Balbar conjunctival injection score (External Segment) / Corneal opacity score (External Segment) / Discharge score (External Segment) / External + Internal Grand Total Score / External Segment Total Score / Internal Segment Total Score / Iridic injection score (Internal Segment) / Morphological change of iris score (Internal Segment) / Palpebral conjunctival edema score (External Segment) / Palpebral conjunctival injection score (External Segment): peak inflammatory period of 3 days, mean ± SE
Procedure: (§1) Seventeen male white rabbits weighing about 2 kg were used. They were fed with 80 g of Labo RG-RO (Nippon Agricultural Co., Ltd.) daily and had free access to tap water.
(§2) After 28 days when ophthalmitis I had nearly recovered, 2.5% BSA solution was administered in a dose of 25 mg/ml/kg into the auricular vein to cause ophthalmitis (ophthalmitis II). The severity of ophthalmitis was rated according to the rating scale^(1) of Yamauchi et al., based on the Draize method in which an increased weight given to the internal segment of the eye. Observation was made with a frequency of once in one or two days during the peak period of inflammation and once in three or four days before and after the peak period for ophthalmitis I and 3, 6, 12 and 24 hours after intravenous injection of BSA for ophthalmitis II.
(§3) ^(1) Hideyasu Yamauchi, Makoto Ingu, Tadashi Iso and Kozo Uda: Anti-inflammatory effect of fluorometholone ophthalmic solution in experimental uveitis in rabbits, Folia Ophthalmologica Japonica, 24: 969-79 (1973).
(§4) Gross observation was made on the day after injection of BSA into the vitreous body and with the animals arranged in the decreasing order of severity of ocular inflammation, grouping was carried out in such a manner that the intensity distribution would be uniform over the groups. Thus, a physiological saline group of 7 animals, a 0.1% Compound [I] instillation group of 4 animals and a 0.5% Compound [I] instillation group of 5 animals were provided. After this grouping procedure, the test drugs and saline were respectively instilled into both eyes of the rabbits, 50 μl per dose, 4 times a day. For induction of ophthalmitis II, each drug was instilled into both eyes, 50 μl per dose, immediately after injection of BSA into the auricular vein and at 1-hour intervals thereafter, for a total of 14 times.

[2] = system: experimental ophthalmitis induced by bovine serum albumin in white rabbits (ophthalmitis II); assay: Anti-inflammatory effect in ophthalmitis II (intravenous bovine serum albumin relapse), gross severity scores; format: in vivo; conditions: for Anterior chamber opacity, degree of inhibition relative to physiological saline group / Balbar conjunctival injection, degree of inhibition relative to physiological saline group / Corneal opacity, degree of inhibition relative to physiological saline group / Discharge, degree of inhibition relative to physiological saline group / External + Internal Grand Total Score, degree of inhibition relative to physiological saline group / External Segment Total Score, degree of inhibition relative to physiological saline group / Internal Segment Total Score, degree of inhibition relative to physiological saline group / Iridic injection, degree of inhibition relative to physiological saline group / Morphological change of iris, degree of inhibition relative to physiological saline group / Palpebral conjunctival edema, degree of inhibition relative to physiological saline group / Palpebral conjunctival injection, degree of inhibition relative to physiological saline group: ophthalmitis II; for Anterior chamber opacity score (Internal Segment) / Balbar conjunctival injection score (External Segment) / Corneal opacity score (External Segment) / Discharge score (External Segment) / External + Internal Grand Total Score / External Segment Total Score / Internal Segment Total Score / Iridic injection score (Internal Segment) / Morphological change of iris score (Internal Segment) / Palpebral conjunctival edema score (External Segment) / Palpebral conjunctival injection score (External Segment): ophthalmitis II, 3, 6, 12 and 24 hours after intravenous BSA, mean ± SE
Procedure: as §1, §2, §3, §4

[3] = system: carrageenin edema in rats; assay: Carrageenin edema of the conjunctiva in rats; format: in vivo; conditions: 4 hours after carrageenin; for Weight of Edema: mean ± SE for 10 eyes
Procedure: 1. Sodium 3-(4-bromobenzoyl)-2-aminophenyl-acetate (hereinafter referred to as Compound [I])
2. Sodium 3-(4-chlorobenzoyl)-2-aminophenyl-acetate (hereinafter referred to as Compound [II])
3. Sodium 3-benzoyl-2-aminophenylacetate (hereinafter referred to as Compound [III])
Using female Wister rates weighing 100 g in groups of 5 animals or 10 eyes, 0.05 ml of 1% carrageenin (dissolved in physiological saline at 50° C.) as a phlogogen was injected beneath the conjuctiva of both eyes to induce edema. Physiological saline, as a control, and test drugs were respectively instilled into both eyes 40 and 20 minutes before and immediately after the injection of carrageenin, in the amount of 2.5 μl per dose. Four hours after the phlogogen treatment, each animal was sacrificed by cervical dislocation and in accordance with the method of Maistrello et al.^(2), the scalp was peeled off toward the eyelid and the edematous portion together with the skin was removed along the lid margin and weighed.
^(2) Maistrello et al.: Quantitative Effect of Topically Applied Anti-inflammatory Agents on External Ocular Inflammation in Rats: Journal of Pharmaceutical Science, volume 62, pp. 1455-60(1973).

[4] = Stability with polyvinyl pyrrolidone and sodium sulfite (Experimental Example 6); format: physicochemical; conditions: solution in which polyvinyl pyrrolidone and sodium sulfite coexist

SMILES: Nc1c(CC(=O)[O-])cccc1C(=O)c1ccc(Br)cc1.O.[Na+] [Compound [I], Sodium 3-(4-bromobenzoyl)-2-aminophenylacetate monohydrate]
- Inhibition of ophthalmitis I for the external and the internal segment of the eye ([1]; 0.1% and 0.5%): potent and dose-dependent inhibition for both the external and the internal segment of the eye
- Anterior chamber opacity, degree of inhibition relative to physiological saline group ([1]; 0.1%): -20.0%
- Balbar conjunctival injection, degree of inhibition relative to physiological saline group ([1]; 0.1%): 30.8%
- Corneal opacity, degree of inhibition relative to physiological saline group ([1]; 0.1%): 60.0%
- Discharge, degree of inhibition relative to physiological saline group ([1]; 0.1%): 100%
- External + Internal Grand Total Score, degree of inhibition relative to physiological saline group ([1]; 0.1%): 41.8%
- External Segment Total Score, degree of inhibition relative to physiological saline group ([1]; 0.1%): 50.4%
- Internal Segment Total Score, degree of inhibition relative to physiological saline group ([1]; 0.1%): 32.6%
- Iridic injection, degree of inhibition relative to physiological saline group ([1]; 0.1%): 57.4%
- Morphological change of iris, degree of inhibition relative to physiological saline group ([1]; 0.1%): 34.1%
- Palpebral conjunctival edema, degree of inhibition relative to physiological saline group ([1]; 0.1%): 85.7%
- Palpebral conjunctival injection, degree of inhibition relative to physiological saline group ([1]; 0.1%): 65.8%
- Anterior chamber opacity score (Internal Segment) ([1]; 0.1%): 3.6 ± 0.8
- Balbar conjunctival injection score (External Segment) ([1]; 0.1%): 4.5 ± 0.6
- Corneal opacity score (External Segment) ([1]; 0.1%): 1.0 ± 0.4
- Discharge score (External Segment) ([1]; 0.1%): 0
- External + Internal Grand Total Score ([1]; 0.1%): 15.9 ± 1.8
- External Segment Total Score ([1]; 0.1%): 6.8 ± 1.0
- Internal Segment Total Score ([1]; 0.1%): 9.1 ± 1.0
- Iridic injection score (Internal Segment) ([1]; 0.1%): 2.6 ± 0.2
- Morphological change of iris score (Internal Segment) ([1]; 0.1%): 2.9 ± 0.4
- Palpebral conjunctival edema score (External Segment) ([1]; 0.1%): 0.1 ± 0.1
- Palpebral conjunctival injection score (External Segment) ([1]; 0.1%): 1.3 ± 0.2
- Anterior chamber opacity, degree of inhibition relative to physiological saline group ([1]; 0.5%): 33.3%
- Balbar conjunctival injection, degree of inhibition relative to physiological saline group ([1]; 0.5%): 74.5%
- Corneal opacity, degree of inhibition relative to physiological saline group ([1]; 0.5%): 48.0%
- Discharge, degree of inhibition relative to physiological saline group ([1]; 0.5%): 100%
- External + Internal Grand Total Score, degree of inhibition relative to physiological saline group ([1]; 0.5%): 63.0%
- External Segment Total Score, degree of inhibition relative to physiological saline group ([1]; 0.5%): 74.5%
- Internal Segment Total Score, degree of inhibition relative to physiological saline group ([1]; 0.5%): 51.1%
- Iridic injection, degree of inhibition relative to physiological saline group ([1]; 0.5%): 70.5%
- Morphological change of iris, degree of inhibition relative to physiological saline group ([1]; 0.5%): 34.1%
- Palpebral conjunctival edema, degree of inhibition relative to physiological saline group ([1]; 0.5%): 100%
- Palpebral conjunctival injection, degree of inhibition relative to physiological saline group ([1]; 0.5%): 36.8%
- Anterior chamber opacity score (Internal Segment) ([1]; 0.5%): 2.0 ± 0.4
- Balbar conjunctival injection score (External Segment) ([1]; 0.5%): 1.6 ± 0.2
- Corneal opacity score (External Segment) ([1]; 0.5%): 0.4 ± 0.2
- Discharge score (External Segment) ([1]; 0.5%): 0
- External + Internal Grand Total Score ([1]; 0.5%): 10.1 ± 1.0
- External Segment Total Score ([1]; 0.5%): 3.5 ± 0.4
- Internal Segment Total Score ([1]; 0.5%): 6.6 ± 0.8
- Iridic injection score (Internal Segment) ([1]; 0.5%): 1.8 ± 0.2
- Morphological change of iris score (Internal Segment) ([1]; 0.5%): 2.9 ± 0.4
- Palpebral conjunctival edema score (External Segment) ([1]; 0.5%): 0
- Palpebral conjunctival injection score (External Segment) ([1]; 0.5%): 1.5 ± 0.3
- Anterior chamber opacity, degree of inhibition relative to physiological saline group ([2]; 0.1%): -47.4%
- Balbar conjunctival injection, degree of inhibition relative to physiological saline group ([2]; 0.1%): 27.0%
- Corneal opacity, degree of inhibition relative to physiological saline group ([2]; 0.1%): 57.1%
- Discharge, degree of inhibition relative to physiological saline group ([2]; 0.1%): 100%
- External + Internal Grand Total Score, degree of inhibition relative to physiological saline group ([2]; 0.1%): 35.7%
- External Segment Total Score, degree of inhibition relative to physiological saline group ([2]; 0.1%): 32.7%
- Internal Segment Total Score, degree of inhibition relative to physiological saline group ([2]; 0.1%): 40.7%
- Iridic injection, degree of inhibition relative to physiological saline group ([2]; 0.1%): 61.6%
- Morphological change of iris, degree of inhibition relative to physiological saline group ([2]; 0.1%): 44.2%
- Palpebral conjunctival edema, degree of inhibition relative to physiological saline group ([2]; 0.1%): 45.0%
- Palpebral conjunctival injection, degree of inhibition relative to physiological saline group ([2]; 0.1%): 29.8%
- Anterior chamber opacity score (Internal Segment) ([2]; 0.1%): 2.8 ± 0.8
- Balbar conjunctival injection score (External Segment) ([2]; 0.1%): 8.1 ± 0.4
- Corneal opacity score (External Segment) ([2]; 0.1%): 0.6 ± 0.2
- Discharge score (External Segment) ([2]; 0.1%): 0
- External + Internal Grand Total Score ([2]; 0.1%): 21.8 ± 2.1
- External Segment Total Score ([2]; 0.1%): 13.1 ± 1.1
- Internal Segment Total Score ([2]; 0.1%): 8.0 ± 1.2
- Iridic injection score (Internal Segment) ([2]; 0.1%): 2.8 ± 0.1
- Morphological change of iris score (Internal Segment) ([2]; 0.1%): 2.4 ± 0.4
- Palpebral conjunctival edema score (External Segment) ([2]; 0.1%): 1.1 ± 0.4
- Palpebral conjunctival injection score (External Segment) ([2]; 0.1%): 4.0 ± 0.3
- Anterior chamber opacity, degree of inhibition relative to physiological saline group ([2]; 0.5%): -47.4%
- Balbar conjunctival injection, degree of inhibition relative to physiological saline group ([2]; 0.5%): 27.0%
- Corneal opacity, degree of inhibition relative to physiological saline group ([2]; 0.5%): 57.1%
- Discharge, degree of inhibition relative to physiological saline group ([2]; 0.5%): 100%
- External + Internal Grand Total Score, degree of inhibition relative to physiological saline group ([2]; 0.5%): 34.2%
- External Segment Total Score, degree of inhibition relative to physiological saline group ([2]; 0.5%): 31.4%
- Internal Segment Total Score, degree of inhibition relative to physiological saline group ([2]; 0.5%): 33.3%
- Iridic injection, degree of inhibition relative to physiological saline group ([2]; 0.5%): 54.8%
- Morphological change of iris, degree of inhibition relative to physiological saline group ([2]; 0.5%): 32.6%
- Palpebral conjunctival edema, degree of inhibition relative to physiological saline group ([2]; 0.5%): 55.0%
- Palpebral conjunctival injection, degree of inhibition relative to physiological saline group ([2]; 0.5%): 60.5%
- Anterior chamber opacity score (Internal Segment) ([2]; 0.5%): 2.8 ± 0.5
- Balbar conjunctival injection score (External Segment) ([2]; 0.5%): 8.1 ± 0.3
- Corneal opacity score (External Segment) ([2]; 0.5%): 0.6 ± 0.2
- Discharge score (External Segment) ([2]; 0.5%): 0
- External + Internal Grand Total Score ([2]; 0.5%): 22.3 ± 1.1
- External Segment Total Score ([2]; 0.5%): 13.3 ± 0.6
- Internal Segment Total Score ([2]; 0.5%): 9.0 ± 0.7
- Iridic injection score (Internal Segment) ([2]; 0.5%): 3.3 ± 0.3
- Morphological change of iris score (Internal Segment) ([2]; 0.5%): 2.9 ± 0.3
- Palpebral conjunctival edema score (External Segment) ([2]; 0.5%): 0.9 ± 0.2
- Palpebral conjunctival injection score (External Segment) ([2]; 0.5%): 3.7 ± 0.1
- Inhibitory effect on inflammatory symptoms induced by intravenous antigen ([2]; both concentrations (0.1% and 0.5%), gross observation): substantially complete inhibition at both concentrations
- Degree of inhibition (carrageenin edema) ([3]; 1.0%): 16.9%
- Weight of Edema ([3]; 1.0%): 43.93 ± 4.138 mg
- Degree of inhibition (carrageenin edema) ([3]; 2.5%): 31.3%
- Weight of Edema ([3]; 2.5%): 36.323 ± 3.308 mg
- Decomposition of Compound [I] [4]: the decomposition of Compound [I] was not observed either
